# Source: patent US20110319409A1, “7-AZA-QUINAZOLINE PDE10 INHIBITORS” (priority 2010, published 2011)
# Biological target: T1, human PDE10A2 (Homo sapiens, UniProt Q9Y233)
# T1 construct: made in house; host or cells: AD293 cells, transiently transfected; cytoplasmic fraction of the lysate used as enzyme
# Test: PDE10 fluorescence polarization (IMAP FP) assay
# Format: biochemical
# Details: human PDE10 enzyme, FAM-labeled cAMP substrate 50 nM
# Experimental: The activity of the compounds in accordance with the present invention as PDE10 inhibitors may be readily determined without undue experimentation using a fluorescence polarization (FP) methodology well known in the art (Huang, W., et al., J. Biomol Screen, 2002, 7: 215).
# In a typical experiment the PDE10 inhibitory activity of the compounds of the present invention is determined in accordance with the following experimental method. PDE10A2 is amplified from human fetal brain cDNA (Clontech, Mountain View, Calif.) using a forward primer corresponding to nucleotides 56-77 of human PDE10A2 (Accession No. AF127480, Genbank Identifier 4894716), containing a Kozak consensus sequence, and a reverse primer Corresponding to nucleotides 2406-2413 of human PDE10A2 (Accession No. AF127480, Genbank Identifier 4894716). Amplification with Easy-A polymerase (Stratagene, La Jolla, Calif.) is carried out at 95° C. for 2 minutes followed by thirty three cycles of 95° C. for 40 seconds, 55° C. for 30 seconds, and 72° C. for 2 minutes 48 seconds. Final extension is at 72° C. for 7 minutes. The PCR product is TA cloned into pcDNA3.2-TOPO (Invitrogen, Carlsbad, Calif.) according to standard protocol.
# AD293 cells with 70-80% confluency are transiently transfected with human PDE10A2/pcDNA3.2-TOPO using Lipofectamine 2000 according to manufacturer specifications (Invitrogen, Carlsbad, Calif.). Cells are harvested 48 hours post-transfection and lysed by sonication (setting 3, 10×5 sec pulses) in a buffer containing 20 mM HEPES, 1 mM EDTA and protease inhibitor cocktail (Roche). Lysate is collected by centrifugation at 75,000×g for 20 minutes. Supernatant containing the cytoplasmic fraction is used for evaluation of PDE10A2 activity.
# The fluorescence polarization assay for cyclic nucleotide phosphodiesterases is performed using an IMAP® FP kit supplied by Molecular Devices, Sunnyvale, Calif. (product #R8139). IMAP® technology has been applied previously to phosphodiesterase assays (Huang, W., et al., J. Biomol Screen, 2002, 7: 215). Assays are performed at room temperature in 384-well microtiter plates with an incubation volume of 20.2 μL. Solutions of test compounds are prepared in DMSO and serially diluted with DMSO to yield 8 μL of each of 10 solutions differing by 3-fold in concentration, at 32 serial dilutions per plate. 100% inhibition is determined using a known PDE10 inhibitor, which can be any compound that is present at 5,000 times its Ki value in the assay described as follows, such as papaverine (see Siuciak, et al. Neuropharmacology (2006) 51:386-396; Becker, et al. Behav Brain Res (2008) 186(2):155-60; Threlfell, et al., J Pharmacol Exp Ther (2009) 328(3):785-795), 2-{4-[pyridin-4-yl-1-(2,2,2-trifluoroethyl)-1H-pyrazol-3-yl]phenoxymethyl}quinoline succinic acid or 2-[4-(1-methyl-4-pyridin-4-yl-1H-pyrazol-3-yl)-phenoxymethyl]quinoline succinic acid (see Schmidt, et al. J Pharmacol Exp Ther (2008) 325:681-690; Threlfell, et al., J Pharmacol Exp Ther (2009) 328(3): 785-795). 0% of inhibition is determined by using DMSO (1% final concentrations).
# A Labcyte Echo 555 (Labcyte, Sunnyvale, Calif.) is used to dispense 200 nL from each well of the titration plate to the 384 well assay plate. A solution of enzyme (1/1600 dilution from aliquots; sufficient to produce 20% substrate conversion) and a separate solution of FAM-labeled cAMP PDE from Molecular Devices (product # R7506), at a final concentration of 50 nM are made in the assay buffer (10 mM Tris HCl, pH 7.2, 10 mM MgCl2, 0.05% NaN3 0.01% Tween-20, and 1 mM DTT). The enzyme and the substrate are then added to the assay plates in two consecutive additions of 10 μL, and then shaken to mix. The reaction is allowed to proceed at room temperature for 30 minutes. A binding solution is then made from the kit components, comprised of 80% Solution A, 20% Solution B and binding reagent at a volume of 1/600 the total binding solution. […]
# T1 sequence (Q9Y233 267-1055): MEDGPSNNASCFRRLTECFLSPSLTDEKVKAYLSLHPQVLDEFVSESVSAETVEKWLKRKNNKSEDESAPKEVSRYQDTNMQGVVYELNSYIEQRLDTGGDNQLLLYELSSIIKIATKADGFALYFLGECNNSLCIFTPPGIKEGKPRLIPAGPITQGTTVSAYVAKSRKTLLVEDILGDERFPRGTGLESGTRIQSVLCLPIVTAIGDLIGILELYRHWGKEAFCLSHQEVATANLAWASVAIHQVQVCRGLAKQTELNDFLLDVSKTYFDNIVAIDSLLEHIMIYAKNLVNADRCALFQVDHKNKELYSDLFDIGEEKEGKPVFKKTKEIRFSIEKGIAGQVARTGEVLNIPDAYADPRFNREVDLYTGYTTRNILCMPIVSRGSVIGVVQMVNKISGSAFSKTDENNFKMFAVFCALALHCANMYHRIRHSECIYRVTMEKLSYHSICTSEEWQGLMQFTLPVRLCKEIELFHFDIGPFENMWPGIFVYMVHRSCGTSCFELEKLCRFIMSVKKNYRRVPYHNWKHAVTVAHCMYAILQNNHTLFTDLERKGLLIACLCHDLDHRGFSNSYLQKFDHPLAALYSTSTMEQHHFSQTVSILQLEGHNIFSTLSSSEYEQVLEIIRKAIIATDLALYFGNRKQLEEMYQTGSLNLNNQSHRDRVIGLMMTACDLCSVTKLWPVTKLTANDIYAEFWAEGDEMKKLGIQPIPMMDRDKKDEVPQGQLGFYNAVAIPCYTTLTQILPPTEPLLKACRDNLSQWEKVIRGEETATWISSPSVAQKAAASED
row,Structure (SMILES),Ki
1,"O=S(=O)(c1cccc2c1CN(c1nc(NCc3ccncc3)c3ccncc3n1)CC2)N1CCOCC1 [1-8, 2-[8-(Morpholin-4-ylsulfonyl)-3,4-dihydroisoquinolin-2(1H)-yl]-N-(pyridin-4-ylmethyl)pyrido[3,4-d]pyrimidin-4-amine]",0.23 nM
2,"Cc1ncccc1-c1cccc(-c2nc(NCc3ccncc3)c3ccncc3n2)c1 [1-1, 2-[3-(2-Methylpyridin-3-yl)phenyl]-N-(pyridin-4-ylmethyl)pyrido[3,4-d]pyrimidin-4-amine]",1.4 nM
3,"CC(C)OC(=O)c1cccc(-c2nc(NCc3ccncc3)c3ccncc3n2)c1 [1-13, isopropyl 3-{4-[(pyridin-4-ylmethyl)amino]pyrido[3,4-d]pyrimidin-2-yl}benzoate]",1.4 nM
4,"c1cc(-c2nc(OCc3ccncc3)c3ccncc3n2)cc(-c2ncco2)c1 [1-9, 2-[3-(1,3-Oxazol-2-yl)phenyl]-4-(pyridin-4-ylmethoxy)pyrido[3,4-d]pyrimidine]",2.7 nM
5,c1cc(-c2nc(NCCN3CCOCC3)c3ccncc3n2)cc(-c2cncc3ccccc23)c1 [1-7],0.55 nM
6,"c1ccc2c(c1)CCN(c1nc(NCc3ccncc3)c3ccncc3n1)C2 [B-4, 2-(3,4-Dihydroisoquinolin-2(1H)-yl)-N-(pyridin-4-ylmethyl)pyrido[3,4-d]pyrimidin-4-amine]",5.6 nM
7,"COc1ncccc1-c1cccc(-c2nc(NCc3cncnc3)c3ccncc3n2)c1 [1-4, 2-[3-(2-Methoxypyridin-3-yl)phenyl]-N-(pyrimidin-5-ylmethyl)pyrido[3,4-d]pyrimidin-4-amine]",0.41 nM
8,"COc1ncccc1-c1cccc(-c2nc(NCc3ccncc3)c3ccncc3n2)c1 [A-6, 2-{3-[2-(Methyloxy)pyridin-3-yl]phenyl}-N-(pyridin-4-ylmethyl)pyrido[3, d]pyrimidin-4-amine]",0.4 nM
9,"COc1ncccc1-c1cccc(-c2nc(NCCO)c3ccncc3n2)c1 [1-3, 2-({2-[3-(2-Methoxypyridin-3-yl)phenyl]pyrido[3,4-d]pyrimidin-4-yl}amino)ethanol]",2.7 nM
10,"C(=C\c1nc(NCc2cncnc2)c2ccncc2n1)/c1ccccc1 [C-2, 2-[(E)-2-Phenylvinyl]-N-(pyrimidin-5-ylmethyl)pyrido[3,4-d]pyrimidin-4-amine]",131 nM
11,"COc1ncccc1-c1cncc(-c2nc(NCc3cncnc3)c3ccncc3n2)c1 [1-11, 2-(2′-methoxy-3,3′-bipyridin-5-yl)-N-(pyrimidin-5-ylmethyl)pyrido[3,4-d]pyrimidin-4-amine]",0.84 nM
